Test results as given in patent US20250368624A1, “M24B AMINOPEPTIDASE INHIBITORS FOR CARD8 INFLAMMASOME ACTIVATION” (Memorial Sloan-Kettering Cancer Center, priority 2022, published 2025).

Key:
[1] = test system: primary bone marrow-derived macrophages (BMDMs) and mouse RAW264.7 cells; assay: LDH release and GSDMD cleavage in BMDMs and RAW264.7 cells (mouse NLRP1); format: cell-based; settings: VbP 10 μM, CQ31/CQ80 20 μM, 24 h
Description: Mouse BMDM isolation and culture. Bone marrow was harvested from the femurs and tibias of 7-12-week-old C57BL/6J mice. Briefly, femurs and tibias were harvested from mice and crushed with a mortar and pestle in cold 1×PBS supplemented with 2.5% FBS. The mixture was passed through a 70-μm nylon cell strainer. RBCs were lysed for 4-5 min on ice in 1×RBC lysis buffer (Biolegend) and cells were centrifuged at 300×g for 5 min at 4° C. The cell pellet was washed in cold 1×PBS supplemented with 2.5% FBS before being passed again through in a 70-μm nylon cell strainer and counted. Counted cells were plated on non-tissue culture 10-cm plates at 5-10×10^6 cells per plate in DMEM supplemented with 10% FBS and 15-20% L-cell media. Cells were incubated at 37° C. for 6 days before replating and assaying as indicated.
(§1) LDH cytotoxicity and immunoblotting assays. HEK293T cells were transiently transfected and treated with inhibitors as indicated. MV4;11, OCI AML2, THP-1, and RAW264.7 cells were plated in 12-well culture plates at 5×10^5 cells/well and treated as indicated. Supernatants were analyzed for LDH activity using the Pierce LDH Cytotoxicity Assay Kit (Life Technologies). LDH activity was quantified relative to a lysis control where cells were lysed in 80 μL of a 9% Triton X-100 solution. For immunoblotting, cells were washed 2× in PBS (pH=7.4), resuspended in PBS, and lysed by sonication. Protein concentrations were determined and normalized using the DCA Protein Assay kit (Bio-Rad). The samples were separated by SDS-PAGE, immunoblotted, and visualized using the Odyssey Imaging System (Li-Cor).

[2] = test system: human resting T cells; assay: GSDMD cleavage in human resting T cells; format: cell-based; settings: 20 μM, 24 h
Source text: Human primary cell isolation and culture. Isolated human primary cells were obtained from Astarte Biologics. All cells were >90% purity, as validated by flow cytometry by Astarte Biologics. T cells were thawed in RPMI-1640 medium supplemented with 10% FBS and cultured in RPMI-1640 medium, 10% fetal bovine serum (FBS), and 30 U/mL IL-2 (Peprotech).
as §1

[3] = test system: N/TERT-1 keratinocytes; assay: Cell viability of N/TERT-1 keratinocytes (NLRP1 inflammasome); format: cell-based, human; settings: VbP 10 μM, CQ compounds 20 μM, 24 h, CTG
Description: Cell Culture. HEK293T, THP-1, RAW264.7 cells were purchased from ATCC. MV4;11, OCI-AML2 cells were purchased from DSMZ. N/TERT1 cells were a gift from the Rheinwald Lab (Dickson et al., 2000). HEK293T and RAW264.7 cells were grown in Dulbecco's Modified Eagle's Medium (DMEM) with L-glutamine and 10% fetal bovine serum (FBS). N/TERT1 cells were grown in Keratinocyte serum free medium (KSFM) supplemented with 1× penicillin/streptomycin, bovine pituitary extract (25 μg/ml) and epidermal growth factor (EGF) (0.2 ng/ml). All other cell lines were grown in Roswell Park Memorial Institute (RPMI) medium 1640 with L-glutamine and 10% fetal bovine serum (FBS). All cells were grown at 37° C. in a 5% CO2 atmosphere incubator. Cell lines were regularly tested for mycoplasma using the MycoAlert™ Mycoplasma Detection Kit (Lonza).
(§2) CellTiter-Glo cell viability and CytoTox-Fluor cell death assays. Cells were plated (2,000 cells per well) in white, 384-well clear-bottom plates (Corning) using an EL406 Microplate Washer/Dispenser (BioTek) in 25 μL final volume of medium. To the cell plates were added compounds at different concentrations using a pintool (CyBio) and the plates were allowed to incubate in the incubator. After incubation for indicated times, CytoTox-Fluor reagent (Promega, G9262) was added according to the manufacturer's protocol. The assay plates were then incubated for another 30 min before fluorescence was recorded using a Cytation 5 Cell Imaging Multi-Mode Reader (BioTek). Next, CellTiter-Glo reagent (Promega, G7573) was subsequently added to the assay plates following the manufacturer's protocol. Assay plates were shaken on an orbital shaker for 2 min and incubated at 25° C. for 10 min. Luminescence was then read using a Cytation 5 Cell Imaging Multi-Mode Reader (BioTek).

[4] = test system: OCI-AML2 cells; assay: CellTiter-Glo cell viability, OCI-AML2 cells (WT, CARD8-/-); format: cell-based; settings: OCI-AML2 WT vs CARD8-/-, 24 h, CTG
Description: as §2

[5] = target: XPNPEP1 (Homo sapiens (Human), UniProt Q9NQW7); assay: XPNPEP1 substrate assay (H-Lys(abz)-Pro-Pro-pNA); format: biochemical; settings: for IC50: XPNPEP1 3.5 nM, substrate 100 μM, 60 mins
[6] = test system: MV4;11, OCI-AML2, and THP-1 cells; assay: LDH release and GSDMD cleavage immunoblot; format: cell-based; settings: WT vs CARD8-/- cells, 20 μM, 24 h
Description: as §1

[7] = Stability in cell culture supernatants; format: in vitro ADME; settings: cell culture supernatants

Sequence of XPNPEP1 (Q9NQW7 whole entry): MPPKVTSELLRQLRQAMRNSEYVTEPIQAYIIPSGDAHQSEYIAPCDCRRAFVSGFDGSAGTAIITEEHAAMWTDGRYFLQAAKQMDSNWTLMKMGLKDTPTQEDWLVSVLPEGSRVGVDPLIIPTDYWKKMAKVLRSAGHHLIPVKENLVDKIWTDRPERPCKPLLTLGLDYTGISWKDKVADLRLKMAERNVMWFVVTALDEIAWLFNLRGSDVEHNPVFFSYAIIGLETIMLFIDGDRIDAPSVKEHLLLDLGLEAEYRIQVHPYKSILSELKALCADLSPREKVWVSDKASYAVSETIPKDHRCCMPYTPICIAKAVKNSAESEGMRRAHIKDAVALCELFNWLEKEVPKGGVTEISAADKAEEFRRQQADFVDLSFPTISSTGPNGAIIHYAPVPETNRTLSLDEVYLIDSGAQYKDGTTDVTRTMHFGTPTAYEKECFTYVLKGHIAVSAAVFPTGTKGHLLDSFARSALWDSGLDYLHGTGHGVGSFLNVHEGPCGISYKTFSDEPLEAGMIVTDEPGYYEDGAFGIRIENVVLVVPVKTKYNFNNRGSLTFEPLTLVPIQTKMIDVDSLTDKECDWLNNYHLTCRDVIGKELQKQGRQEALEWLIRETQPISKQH

Row | SMILES | pyroptosis (LDH release and GSDMD cleavage) [1] | GSDMD cleavage [2] | cell death in N/TERT-1 keratinocytes [3] | cell death [4] | XPNPEP1 inhibition (in words) [5] | IC50 [5] | LDH release and GSDMD cleavage [6] | time to conversion to CQ04 [7] | remained intact after 24 h ([7]; 24 h)
1 | COC(=O)[C@@H]1CCCN1C(=O)[C@@H](O)[C@H](N)CC(C)C [CQ31] | only VbP induced pyroptosis | induced GSDMD cleavage | Only VbP induced cell death | induced cell death in WT, but not CARD8−/− | inhibited PEPD and XPNPEP1 inhibitors similarly | 122 µM | induced lactate dehydrogenase (LDH) release and GSDMD cleavage | ≤ 30 min | 
2 | COC(=O)[C@H](CC(C)C)NC(=O)[C@@H]1CCCN1C(=O)[C@@H](O)[C@H](N)CC(C)C [CQ80, Methyl ((2S,3R)-3-amino-2-hydroxy-5-methylhexanoyl)-L-prolyl-L-leucinate] | only VbP induced pyroptosis | induced GSDMD cleavage | Only VbP induced cell death | induced cell death in WT, but not CARD8−/− |  | 43 µM | induced lactate dehydrogenase (LDH) release and GSDMD cleavage |  | ~50%
